“And” between values parts separate entries of the source, which are not always exact repeats. Identical values can stand only once.

In test [1] the target is T1, hCBS-FL (Homo sapiens, UniProt P35520).
T1 sequence (P35520 1-551): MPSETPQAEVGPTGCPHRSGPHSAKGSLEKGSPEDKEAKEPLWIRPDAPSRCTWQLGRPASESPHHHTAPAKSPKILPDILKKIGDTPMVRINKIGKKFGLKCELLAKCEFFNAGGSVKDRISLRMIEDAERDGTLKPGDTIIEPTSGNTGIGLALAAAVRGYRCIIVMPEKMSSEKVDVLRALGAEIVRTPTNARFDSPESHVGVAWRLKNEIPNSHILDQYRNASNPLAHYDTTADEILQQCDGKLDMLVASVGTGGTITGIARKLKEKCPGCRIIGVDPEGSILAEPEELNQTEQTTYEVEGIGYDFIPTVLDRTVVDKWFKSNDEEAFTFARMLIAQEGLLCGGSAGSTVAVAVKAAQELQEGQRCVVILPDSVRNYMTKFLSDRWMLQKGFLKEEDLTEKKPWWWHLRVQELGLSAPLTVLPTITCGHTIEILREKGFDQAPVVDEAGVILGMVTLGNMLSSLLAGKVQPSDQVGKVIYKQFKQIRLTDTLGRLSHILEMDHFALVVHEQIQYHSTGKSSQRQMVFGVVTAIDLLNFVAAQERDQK
The test is described as follows: purified hCBS full-length enzyme assay. The test is classed as biochemical. Also noted: human CBS or hCSE full-length (CBS-FL or CSE) was subcloned into pGEX-KG, pcDNA3 or pCDH vector; GST (N); made in house; host or cells: E. coli BL21. The note with it: standard conditions. Here is the method:
The IC50 values of CH004 for hCBS-413, hCBS-413 mutants, hCBS-FL, hCSE or hDDC were determined according to the standard assay conditions otherwise indicated.
^2The IC50 were determined for hCBS-FL.

Test [2] deals with T1, hCBS-FL. The test can be described thus: H2S in HEK293T cells transiently expressing hCBS (AzMC probe). The test is classed as cell-based. The note with it: 10 μM, 8 h. As to the method: HEK293T cells were transiently transfected with empty vector (EV, i and ii), hCBS-FL (iii and iv) or hCSE (v and vi) plasmids, followed by incubation with DMSO (i–iii and v) or 10 μM CH004 (iv and vi) for 8 h before staining with 50 μM AzMC, a H2S-specific probe (“Materials and Methods” section). For larger fluorescent and bright-field images, please see Supplementary Figure 4. The expression levels of hCBS or hCSE in HEK293T cells after transient transfections were determined by western blotting using an anti-CBS antibody (3E1, 1:2000; Abnova) or anti-CSE antibody (1:500, GeneTex). The densities of protein bands for hCBS or hCSE in the blots were quantified with the ImageJ software (National Institutes of Health, Bethesda, MD, USA) and expressed as ratios of respective control (EV group). […] The fluorescent images of the H2S (blue) were accordingly quantified (“Materials and Methods” section) with ImageJ. […] A representative fluorescence image from three independent experiments is shown. […]
H2S levels in living cells were detected using a H2S-specific fluorescent probe according to a protocol described previously[31],[55]. […] After incubation with 50 μM AzMC at 37 °C for 30 min, the cells were washed 4 times with PBS, and the fluorescent images were recorded with excitation by 405 nm laser by using a A1Si (Nikon) confocal microscope. […]

As for `Cn1nc(Cc2ccccc2)nc2c(=O)n(C)c(=O)nc1-2` [CH004, 3-benzyl-1,6-dimethylpyrimido[5,4-e][1,2,4]triazine-5,7(1H,6H)-dione], the IC50 in test [1] was ~590 nM and 590 nM. Moreover, the “decrease in H2S” value in test [2] is ~ 50%.

One may read the IC50 as the midpoint of a concentration-inhibition curve. Higher therefore signals a need for much substance.

(Values after article PMC6158189, “A pharmacological probe identifies cystathionine β-synthase as a new negative regulator for ferroptosis” (Cell Death & Disease, 2018).)
